Data as given in patent US8431593B2, “Heteroaryl amide derivatives” (H. Lundbeck A/S, priority 2006, dated 2013).

Each compound was assayed against T1, P2X7 receptor (Homo sapiens, UniProt Q99572) (assay: P2X7 calcium mobilization assay, high throughput, antagonist activity (Example 4A)). Details: not given.
T1 construct: host or cells: SH-SY5Y
T1 sequence (Q99572 1-595): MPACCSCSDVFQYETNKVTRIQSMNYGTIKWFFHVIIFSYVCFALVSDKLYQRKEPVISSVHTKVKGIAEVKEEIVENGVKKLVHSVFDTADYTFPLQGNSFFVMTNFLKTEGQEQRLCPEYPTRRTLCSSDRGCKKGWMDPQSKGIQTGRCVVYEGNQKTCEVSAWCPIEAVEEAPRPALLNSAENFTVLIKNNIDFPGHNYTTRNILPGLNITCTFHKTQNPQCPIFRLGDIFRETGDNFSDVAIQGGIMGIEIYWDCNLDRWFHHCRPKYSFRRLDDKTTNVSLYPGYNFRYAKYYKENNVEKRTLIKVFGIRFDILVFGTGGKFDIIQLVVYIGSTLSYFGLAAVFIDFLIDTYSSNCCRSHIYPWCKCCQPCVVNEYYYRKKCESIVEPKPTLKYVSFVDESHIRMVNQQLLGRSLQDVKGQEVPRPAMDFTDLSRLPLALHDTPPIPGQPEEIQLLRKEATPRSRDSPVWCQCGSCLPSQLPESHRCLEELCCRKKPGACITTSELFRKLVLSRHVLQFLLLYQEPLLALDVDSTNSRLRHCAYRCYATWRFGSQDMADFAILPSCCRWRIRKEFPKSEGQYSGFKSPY
Type: cell-based
How it was run: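 Cells plated at 100,000/well the day before were dye-loaded for 1 h, then incubated 1 h at room temperature with test compound before agonist-triggered calcium mobilization was read on FLIPR Tetra. Maximum RFU was corrected by subtracting the no-agonist control and related to the agonist-control response.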
With `CC(C)CC(CNC(=O)c1cccc2nc(C(=O)N3CCC4(CC3)OCCO4)cn12)c1ccccc1` (stereo not drawn) [Compound 263, 2-(1,4-dioxa-8-azaspiro[4.5]dec-8-ylcarbonyl)-N-(4-methyl-2-phenylpentyl)imidazo [1,2-a]pyridine-5-carboxamide] the IC50 was < 2000 nM.

Same assay, conditions: fluorescence response of cells exposed to 80 μM 2′(3′)-O-(4-benzoyl-benzoyl)adenosine 5′-triphosphate; Example 4A; read-out: IC50
In the case of `COC[C@@H]1CCCN1C(=O)c1cn2c(C(=O)NCC(CC(C)C)c3ccccc3)cccc2n1` (stereo partly drawn) [Compound 257, 2-{[(2S)-2-(methoxymethyl)pyrrolidin-1-yl]carbonyl)-N-(4-methyl-2-phenylpentyl)imidazo [1,2-a]pyridine-5-carboxamide], the IC50 is reported as < 2000 nM.
In the case of `CC(C)CC(CNC(=O)c1cccc2nc(C(=O)N3CCCC3)cn12)c1ccccc1` (stereo not drawn) [Compound 260, N-(4-methyl-2-phenylpentyl)-2-(pyrrolidin-1-ylcarbonyl)imidazo [1,2-a]pyridine-5-carboxamide], the IC50 is reported as < 2000 nM.
With `CCCN(C)C(=O)c1cn2c(C(=O)NCC(CC(C)C)c3ccccc3)cccc2n1` (stereo not drawn) [Compound 262, 2-N-methyl-5-N-(4-methyl-2-phenylpentyl)-2-N-propylimidazo[1,2-a]pyridine-2,5-dicarboxamide] the IC50 was < 2000 nM.
In the case of `NCCSCc1cn2c(C(=O)NCC34CC5CC(CC(C5)C3)C4)cccc2n1` [Compound 266, N-(adamantan-1-ylmethyl)-2-{[(2-aminoethyl)thio]methyl}imidazo[1,2-a]pyridine-5-carboxamide], the IC50 is reported as < 2000 nM.
For `O=C(NCC12CC3CC(CC(C3)C1)C2)c1cccc2nc(CS(=O)(=O)CCO)cn12` [Compound 267, N-(adamantan-1-ylmethyl)-2-{[(2-hydroxyethyl)sulfonyl]methyl}imidazo[1,2-a]pyridine-5-carboxamide], the IC50 was < 2000 nM.
With `CN(C)C(=O)NCCc1cn2c(C(=O)NCC34CC5CC(CC(C5)C3)C4)cccc2n1` [Compound 268, N-(adamantan-1-ylmethyl)-2-{2-[(dimethylcarbamoyl)amino]ethyl} imidazo[1,2-a] pyridine-5-carboxamide] the IC50 was < 2000 nM.
With `NCC(=O)NCCc1cn2c(C(=O)NCC34CC5CC(CC(C5)C3)C4)cccc2n1` [Compound 269, N-(adamantan-1-ylmethyl)-2-[2-(glycylamino)ethyl] imidazo[1,2-a] pyridine-5-carboxamide] the IC50 was < 2000 nM.
In the case of `CNCC(=O)NCCc1cn2c(C(=O)NCC34CC5CC(CC(C5)C3)C4)cccc2n1` [Compound 270, N-(adamantan-1-ylmethyl)-2-{2-[(N-methylglycyl)amino]ethyl}imidazo[1,2-a] pyridine-5-carboxamide], the IC50 is reported as < 2000 nM.
For `N#CCCc1cn2c(C(=O)NCC34CC5CC(CC(C5)C3)C4)cccc2n1` [Compound 274, N-(adamantan-1-ylmethyl)-2-(2-cyanoethyl)imidazo[1,2-a]pyridine-5-carboxamide], the IC50 was < 2000 nM.
For `Cc1nn(Cc2cn3c(C(=O)NCC45CC6CC(CC(C6)C4)C5)cccc3n2)cc1C(=O)O` [Compound 275, 1-({5-[(adamantan-1-ylmethyl)carbamoyl]imidazo [1,2-a]pyridin-2-yl}methyl)-3-methyl-1H-pyrazole-4-carboxylic acid], the IC50 was < 2000 nM.
With `Cc1cc(C(=O)O)nn1Cc1cn2c(C(=O)NCC34CC5CC(CC(C5)C3)C4)cccc2n1` [Compound 276, 1-({5-[(adamantan-1-ylmethyl)carbamoyl]imidazo[1,2-a]pyridin-2-yl}methyl)-5-methyl-1H-pyrazole-3-carboxylic acid] the IC50 was < 2000 nM.
For `C[C@H](N)C(=O)N[C@@H]1CCN(Cc2cn3c(C(=O)NCC45CC6CC(CC(C6)C4)C5)cccc3n2)C1` [Compound 277, N-(adamantan-1-ylmethyl)-2-{[(3R)-3-(L-alanylamino)pyrrolidin-1-yl]methyl}imidazo[1,2-a]pyridine-5-carboxamide], the IC50 was < 2000 nM.
`C=Cc1cn2c(C(=O)NCC34CC5CC(CC(C5)C3)C4)cccc2n1` [Compound 278, N-(adamantan-1-ylmethyl)-2-vinylimidazo[1,2-a]pyridine-5-carboxamide] was tested, and the IC50 was < 2000 nM.
For `Cc1c(C(=O)O)ncn1Cc1cn2c(C(=O)NCC34CC5CC(CC(C5)C3)C4)cccc2n1` [Compound 279, 1-({5-[(adamantan-1-ylmethyl)carbamoyl]imidazo[1,2-a]pyridin-2-yl}methyl)-5-methyl-1H-imidazole-4-carboxylic acid], the IC50 was < 2000 nM.
In the case of `CCOC(=O)c1cn2c(C(=O)NC(C)C34CC5CC(CC(C5)C3)C4)cccc2n1` (stereo not drawn) [Compound 280, ethyl 5-[(1-adamantan-1-ylethyl)carbamoyl] imidazo[1,2-a] pyridine-2-carboxylate], the IC50 is reported as < 2000 nM.
In the case of `CCOC(=O)Cc1cn2c(C(=O)NC(C)C34CC5CC(CC(C5)C3)C4)cccc2n1` (stereo not drawn) [Compound 281, ethyl {5-[(1-adamantan-1-ylethyl)carbamoyl]imidazo[1,2-a]pyridin-2-yl}acetate], the IC50 is reported as < 2000 nM.
In the case of `O=C(NCC12CC3CC(CC(C3)C1)C2)c1cccc2nc(CN3CC[C@H](F)C3)cn12` [Compound 282, N-(adamantan-1-ylmethyl)-2-[(3-fluoropyrrolidin-1-yl)methyl]imidazo[1,2-a]pyridine-5-carboxamide], the IC50 is reported as < 2000 nM.
In the case of `NCCS(=O)(=O)Cc1cn2c(C(=O)NCC34CC5CC(CC(C5)C3)C4)cccc2n1` [Compound 283, N-(adamantan-1-ylmethyl)-2-{[(2-aminoethyl)sulfonyl]methyl}imidazo [1,2-a]pyridine-5-carboxamide], the IC50 is reported as < 2000 nM.
For `Cc1cc(-c2cn3c(C(=O)NCC45CC6CC(CC(C6)C4)C5)cccc3n2)n[nH]1` [Compound 284, N-(adamantan-1-ylmethyl)-2-(5-methyl-1H-pyrazol-3-yl)imidazo[1,2-a]pyridine-5-carboxamide], the IC50 was < 2000 nM.
In the case of `O=C(O)COCc1cn2c(C(=O)NCC34CC5CC(CC(C5)C3)C4)cccc2n1` [Compound 285, ({5-[{adamantan-1-ylmethyl)carbamoyl]imidazo[1,2-a]pyridin-2-yl}methoxy)acetic acid], the IC50 is reported as < 2000 nM.
`O=C(NCC12CC3CC(CC(C3)C1)C2)c1cccc2nc(CN3CCCC3)cn12` [Compound 286, N-(adamantan-1-ylmethyl)-2-(pyrrolidin-1-ylmethyl)imidazo[1,2-a]pyridine-5-carboxamide] was tested, and the IC50 was < 2000 nM.
In the case of `O=C(O)CSCc1cn2c(C(=O)NCC34CC5CC(CC(C5)C3)C4)cccc2n1` [Compound 287, [({5-[(adamantan-1-ylmethyl)carbamoyl]imidazo[1,2-a]pyridin-2-yl}methyl)thio]acetic acid], the IC50 is reported as < 2000 nM.
For `O=C(NCC12CC3CC(CC(C3)C1)C2)c1cccc2nc(CN3CCCC(F)(F)C3)cn12` [Compound 288, N-(adamantan-1-ylmethyl)-2-[(3,3-difluoropiperidin-1-yl)methyl]imidazo[1,2-a]pyridine-5-carboxamide], the IC50 was < 2000 nM.
`O=C(O)CS(=O)(=O)Cc1cn2c(C(=O)NCC34CC5CC(CC(C5)C3)C4)cccc2n1` [Compound 289, [({5-[(adamantan-1-ylmethyl)carbamoyl]imidazo[1,2-a]pyridin-2-yl}methyl)sulfonyl] acetic acid] was tested, and the IC50 was < 2000 nM.
In the case of `O=C(NCC12CC3CC(CC(C3)C1)C2)c1cccc2nc(CN3CCC(F)(F)CC3)cn12` [Compound 290, N-(adamantan-1-ylmethyl)-2-[(4,4-difluoropiperidin-1-yl)methyl]imidazo[1,2-a]pyridine-5-carboxamide], the IC50 is reported as < 2000 nM.
`O=C(NCC12CC3CC(CC(C3)C1)C2)c1cccc2nc(CN3CCOCC3)cn12` [Compound 291, N-(adamantan-1-ylmethyl)-2-(morpholin-4-ylmethyl)imidazo[1,2-a]pyridine-5-carboxamide] was tested, and the IC50 was < 2000 nM.
